Laboratory results from the kinase profiling compilation of Christmann-Franck et al. (2016).
Where “and” joins values, the source holds several entries; their conditions need not be identical. Equal entries are not always repeated.

Columns and labels:
Test in all cases: KINOMEscan competition binding
Settings in all cases: compound 10.0 µM
MAP2K2 (human) = MAP2K2 (human) (UniProt P36507)
MLTK (human) = MLTK (human) (UniProt Q9NYL2)
WEE2 (human) = WEE2 (human) (UniProt P0C1S8)
MYLK2 (human) = MYLK2 (human) (UniProt Q9H1R3)
PIM3 (human) = PIM3 (human) (UniProt Q86V86)
RPS6KA4 KD1 (human) = RPS6KA4 KD1 (human) (UniProt O75676)
EPHB3 (human) = EPHB3 (human) (UniProt P54753)
EPHB6 (human) = EPHB6 (human) (UniProt O15197)
MAP4K3 (human) = MAP4K3 (human) (UniProt Q8IVH8)
FLT1 (human) = FLT1 (human) (UniProt P17948)
SRC (human) = SRC (human) (UniProt P12931)
PRKAA2 (human) = PRKAA2 (human) (UniProt P54646)
Chain of PRKAA2 (human) (P54646 whole entry, looked up): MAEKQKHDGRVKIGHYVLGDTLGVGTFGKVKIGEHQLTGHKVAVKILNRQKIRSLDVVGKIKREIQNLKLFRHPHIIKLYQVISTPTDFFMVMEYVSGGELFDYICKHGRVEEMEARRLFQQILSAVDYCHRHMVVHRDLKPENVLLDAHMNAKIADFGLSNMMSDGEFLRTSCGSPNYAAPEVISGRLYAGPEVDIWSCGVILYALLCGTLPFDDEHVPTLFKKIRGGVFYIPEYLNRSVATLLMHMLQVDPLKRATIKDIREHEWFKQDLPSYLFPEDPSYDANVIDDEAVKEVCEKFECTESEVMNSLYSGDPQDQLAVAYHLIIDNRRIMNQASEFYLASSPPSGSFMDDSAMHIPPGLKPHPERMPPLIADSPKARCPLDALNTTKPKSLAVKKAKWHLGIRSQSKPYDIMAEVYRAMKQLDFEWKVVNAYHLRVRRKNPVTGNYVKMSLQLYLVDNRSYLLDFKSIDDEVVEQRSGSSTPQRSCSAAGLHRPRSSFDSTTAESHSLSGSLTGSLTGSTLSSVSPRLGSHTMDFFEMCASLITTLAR

TAOK3 (human) = TAOK3 (human) (UniProt Q9H2K8)
CAMK1G (human) = CAMK1G (human) (UniProt Q96NX5)
TRPM6 (human) = TRPM6 (human) (UniProt Q9BX84)
[1] = target: JAK2 JH1 catalytic (human) (UniProt O60674)
TAOK1 (human) = TAOK1 (human) (UniProt Q7L7X3)
TGFBR1 (human) = TGFBR1 (human) (UniProt P36897)
PRKD1 (human) = PRKD1 (human) (UniProt Q15139)
STK10 (human) = STK10 (human) (UniProt O94804)
[2] = test system: EGFR (human), P00533 [752-759 del]
AKT1 (human) = AKT1 (human) (UniProt P31749)
MAST1 (human) = MAST1 (human) (UniProt Q9Y2H9)
IKBKE (human) = IKBKE (human) (UniProt Q14164)
Chain of IKBKE (human) (Q14164 whole entry, looked up): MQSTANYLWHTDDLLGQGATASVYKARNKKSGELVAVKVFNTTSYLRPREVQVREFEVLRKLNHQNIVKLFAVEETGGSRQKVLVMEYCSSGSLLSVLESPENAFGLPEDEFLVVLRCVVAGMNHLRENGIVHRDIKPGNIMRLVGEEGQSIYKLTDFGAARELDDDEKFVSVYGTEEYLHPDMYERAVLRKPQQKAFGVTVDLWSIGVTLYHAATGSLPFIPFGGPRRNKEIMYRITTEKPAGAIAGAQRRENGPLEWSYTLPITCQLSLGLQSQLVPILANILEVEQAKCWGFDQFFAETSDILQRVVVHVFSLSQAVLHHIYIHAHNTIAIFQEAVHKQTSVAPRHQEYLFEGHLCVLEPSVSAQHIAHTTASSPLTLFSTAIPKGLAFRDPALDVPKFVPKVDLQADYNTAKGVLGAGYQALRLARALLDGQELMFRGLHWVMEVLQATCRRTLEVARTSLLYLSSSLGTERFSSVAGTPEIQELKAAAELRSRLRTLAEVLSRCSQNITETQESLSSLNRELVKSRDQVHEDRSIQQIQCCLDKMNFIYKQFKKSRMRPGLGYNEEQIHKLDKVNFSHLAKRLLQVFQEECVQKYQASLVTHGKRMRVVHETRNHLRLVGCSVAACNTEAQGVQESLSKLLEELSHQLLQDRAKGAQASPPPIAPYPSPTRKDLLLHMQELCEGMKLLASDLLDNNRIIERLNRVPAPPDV

PRKACB (human) = PRKACB (human) (UniProt P22694)
[3] = target: JAK3 JH1 catalytic (human) (UniProt P52333)
MARK3 (human) = MARK3 (human) (UniProt P27448)
PIP5K1C (human) = PIP5K1C (human) (UniProt O60331)
TXK (human) = TXK (human) (UniProt P42681)
Chain of TXK (human) (P42681 whole entry, looked up): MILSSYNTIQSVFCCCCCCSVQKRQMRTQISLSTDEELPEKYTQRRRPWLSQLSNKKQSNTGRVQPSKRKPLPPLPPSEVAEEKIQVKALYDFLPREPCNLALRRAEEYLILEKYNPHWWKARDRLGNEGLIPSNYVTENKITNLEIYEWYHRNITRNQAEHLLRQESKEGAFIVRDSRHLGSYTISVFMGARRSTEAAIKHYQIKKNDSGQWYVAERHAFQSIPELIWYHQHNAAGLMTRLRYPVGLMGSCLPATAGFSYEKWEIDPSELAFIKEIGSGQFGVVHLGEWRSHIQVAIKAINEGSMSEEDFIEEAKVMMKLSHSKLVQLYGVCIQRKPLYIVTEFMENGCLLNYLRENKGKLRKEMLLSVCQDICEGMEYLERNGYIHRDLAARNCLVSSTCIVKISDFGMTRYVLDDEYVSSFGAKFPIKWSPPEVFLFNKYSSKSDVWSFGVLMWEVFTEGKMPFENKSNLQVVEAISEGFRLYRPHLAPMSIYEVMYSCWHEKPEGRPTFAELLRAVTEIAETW

MAPK1 (human) = MAPK1 (human) (UniProt P28482)
[4] = target: JAK1 JH2 pseudokinase (human) (UniProt P23458)
Chain of JAK1 JH2 pseudokinase (human) (P23458 whole entry, looked up): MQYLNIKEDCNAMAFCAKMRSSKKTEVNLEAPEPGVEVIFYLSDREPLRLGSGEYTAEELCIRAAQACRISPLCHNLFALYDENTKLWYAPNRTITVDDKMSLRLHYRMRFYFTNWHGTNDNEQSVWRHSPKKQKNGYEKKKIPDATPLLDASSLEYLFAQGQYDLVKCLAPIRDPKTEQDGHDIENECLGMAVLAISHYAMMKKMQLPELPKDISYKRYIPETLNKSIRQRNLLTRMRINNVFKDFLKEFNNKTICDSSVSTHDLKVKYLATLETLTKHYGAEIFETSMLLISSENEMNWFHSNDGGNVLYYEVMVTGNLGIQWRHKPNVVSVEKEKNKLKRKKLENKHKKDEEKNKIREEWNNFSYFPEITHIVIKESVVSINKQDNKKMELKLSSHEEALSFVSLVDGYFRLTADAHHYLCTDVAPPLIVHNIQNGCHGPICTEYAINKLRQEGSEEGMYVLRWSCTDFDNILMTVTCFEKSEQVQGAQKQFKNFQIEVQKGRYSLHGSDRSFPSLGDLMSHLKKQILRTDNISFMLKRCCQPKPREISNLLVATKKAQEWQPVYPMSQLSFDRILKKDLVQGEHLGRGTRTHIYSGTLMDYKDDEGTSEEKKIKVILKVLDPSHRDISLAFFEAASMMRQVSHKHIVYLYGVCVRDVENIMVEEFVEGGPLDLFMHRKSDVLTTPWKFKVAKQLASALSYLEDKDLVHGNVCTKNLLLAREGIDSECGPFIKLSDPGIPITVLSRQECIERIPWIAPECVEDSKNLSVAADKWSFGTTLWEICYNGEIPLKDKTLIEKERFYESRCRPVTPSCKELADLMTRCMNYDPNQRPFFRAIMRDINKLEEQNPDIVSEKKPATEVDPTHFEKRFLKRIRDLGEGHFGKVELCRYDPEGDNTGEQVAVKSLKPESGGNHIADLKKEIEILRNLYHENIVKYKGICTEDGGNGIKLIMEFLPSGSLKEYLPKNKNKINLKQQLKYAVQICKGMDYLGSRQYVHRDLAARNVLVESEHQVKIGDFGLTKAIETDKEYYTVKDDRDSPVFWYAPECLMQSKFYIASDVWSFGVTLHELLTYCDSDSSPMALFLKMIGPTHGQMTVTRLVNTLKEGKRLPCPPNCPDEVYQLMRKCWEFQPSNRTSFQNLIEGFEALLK

DDR2 (human) = DDR2 (human) (UniProt Q16832)
Chain of DDR2 (human) (Q16832 whole entry, looked up): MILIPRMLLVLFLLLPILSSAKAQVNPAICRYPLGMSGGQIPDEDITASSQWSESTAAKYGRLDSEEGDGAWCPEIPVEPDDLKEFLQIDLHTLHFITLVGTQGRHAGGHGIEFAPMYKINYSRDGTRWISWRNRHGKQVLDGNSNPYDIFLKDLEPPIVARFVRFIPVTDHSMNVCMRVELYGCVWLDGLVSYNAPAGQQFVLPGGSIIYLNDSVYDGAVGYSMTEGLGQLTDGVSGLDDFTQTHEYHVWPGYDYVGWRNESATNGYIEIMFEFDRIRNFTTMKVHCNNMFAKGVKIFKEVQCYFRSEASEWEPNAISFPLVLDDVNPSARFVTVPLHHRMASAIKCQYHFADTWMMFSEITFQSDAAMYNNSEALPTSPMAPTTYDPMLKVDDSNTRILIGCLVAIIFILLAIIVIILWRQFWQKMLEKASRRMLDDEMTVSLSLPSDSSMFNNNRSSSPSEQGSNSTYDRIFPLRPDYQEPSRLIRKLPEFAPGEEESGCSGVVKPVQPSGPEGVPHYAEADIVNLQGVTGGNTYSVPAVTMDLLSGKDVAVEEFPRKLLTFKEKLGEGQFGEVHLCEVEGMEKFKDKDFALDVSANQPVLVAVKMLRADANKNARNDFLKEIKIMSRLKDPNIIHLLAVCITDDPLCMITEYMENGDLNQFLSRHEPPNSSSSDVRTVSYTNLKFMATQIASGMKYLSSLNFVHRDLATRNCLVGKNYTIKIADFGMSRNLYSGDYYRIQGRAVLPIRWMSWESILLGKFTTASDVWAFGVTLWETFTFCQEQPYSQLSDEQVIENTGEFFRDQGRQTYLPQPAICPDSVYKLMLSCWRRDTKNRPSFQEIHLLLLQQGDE

MAP4K5 (human) = MAP4K5 (human) (UniProt Q9Y4K4)
[5] = test system: EGFR (human), P00533 [747-751 del / S ins]
MKNK2 (human) = MKNK2 (human) (UniProt Q9HBH9)
ITK (human) = ITK (human) (UniProt Q08881)
Chain of ITK (human) (Q08881 whole entry, looked up): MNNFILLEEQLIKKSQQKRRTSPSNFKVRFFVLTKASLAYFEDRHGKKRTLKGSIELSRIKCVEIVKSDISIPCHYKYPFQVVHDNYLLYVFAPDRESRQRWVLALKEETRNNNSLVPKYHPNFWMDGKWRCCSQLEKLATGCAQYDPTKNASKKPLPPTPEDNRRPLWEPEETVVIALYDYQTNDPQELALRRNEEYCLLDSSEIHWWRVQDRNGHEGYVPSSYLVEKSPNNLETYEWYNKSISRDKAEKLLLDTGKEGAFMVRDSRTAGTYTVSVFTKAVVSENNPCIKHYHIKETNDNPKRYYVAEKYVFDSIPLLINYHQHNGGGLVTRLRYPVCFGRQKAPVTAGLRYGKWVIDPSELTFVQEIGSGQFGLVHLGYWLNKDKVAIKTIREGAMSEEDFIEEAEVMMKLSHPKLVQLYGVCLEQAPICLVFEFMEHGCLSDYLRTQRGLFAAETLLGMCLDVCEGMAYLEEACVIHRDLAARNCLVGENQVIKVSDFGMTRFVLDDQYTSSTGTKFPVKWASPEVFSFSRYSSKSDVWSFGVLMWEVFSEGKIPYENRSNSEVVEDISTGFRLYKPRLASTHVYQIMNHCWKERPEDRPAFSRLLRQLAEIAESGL

LIMK2 (human) = LIMK2 (human) (UniProt P53671)
[6] = test system: FLT3 (human), P36888 [D835H]
EPHA3 (human) = EPHA3 (human) (UniProt P29320)
CSF1R (human) = CSF1R (human) (UniProt P07333)

Chain of MAP2K2 (human) (P36507 whole entry, looked up): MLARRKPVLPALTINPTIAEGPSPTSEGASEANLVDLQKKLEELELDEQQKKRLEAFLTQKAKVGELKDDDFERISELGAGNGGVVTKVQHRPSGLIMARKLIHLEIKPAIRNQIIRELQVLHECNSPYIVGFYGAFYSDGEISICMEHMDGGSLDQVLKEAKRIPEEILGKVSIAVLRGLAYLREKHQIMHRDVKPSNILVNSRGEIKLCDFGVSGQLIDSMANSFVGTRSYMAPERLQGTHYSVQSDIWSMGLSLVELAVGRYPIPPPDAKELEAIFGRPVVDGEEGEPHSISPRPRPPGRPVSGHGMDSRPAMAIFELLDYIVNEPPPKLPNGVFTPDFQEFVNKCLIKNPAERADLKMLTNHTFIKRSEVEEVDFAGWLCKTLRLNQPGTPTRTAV

SMILES | kinase still bound, per cent of control (MAP2K2 (human)) | kinase still bound, per cent of control (MLTK (human)) | kinase still bound, per cent of control (WEE2 (human)) | kinase still bound, per cent of control (MYLK2 (human)) | kinase still bound, per cent of control (PIM3 (human)) | kinase still bound, per cent of control (RPS6KA4 KD1 (human)) | kinase still bound, per cent of control (EPHB3 (human)) | kinase still bound, per cent of control (EPHB6 (human)) | kinase still bound, per cent of control (MAP4K3 (human)) | kinase still bound, per cent of control (FLT1 (human)) | kinase still bound, per cent of control (PRKAA2 (human)) | kinase still bound, per cent of control (TAOK3 (human)) | kinase still bound, per cent of control (CAMK1G (human)) | kinase still bound, per cent of control [1] | kinase still bound, per cent of control (TAOK1 (human)) | kinase still bound, per cent of control (TGFBR1 (human)) | kinase still bound, per cent of control (PRKD1 (human)) | kinase still bound, per cent of control (STK10 (human)) | kinase still bound, per cent of control (AKT1 (human)) | kinase still bound, per cent of control (MAST1 (human)) | also measured
COc1cc2ncn(-c3cc(OCc4ccccc4C(F)(F)F)c(C(N)=O)s3)c2cc1OC | 85% | 74% | 100% | 59% | 63% | 69% | 76% | 9.9% | 32% | 58% | 92% | 89% | 72% | 48% | 47% | 86% | 100% | 0% | 100% | 75% | kinase still bound, per cent of control (SRC (human)): 64%; kinase still bound, per cent of control (TRPM6 (human)): 100%; kinase still bound, per cent of control [2]: 100%; kinase still bound, per cent of control (IKBKE (human)): 60%; kinase still bound, per cent of control (PRKACB (human)): 100%; kinase still bound, per cent of control [3]: 40%; kinase still bound, per cent of control (MARK3 (human)): 78%; kinase still bound, per cent of control (PIP5K1C (human)): 10%; kinase still bound, per cent of control (TXK (human)): 72%; kinase still bound, per cent of control (MAPK1 (human)): 86%; kinase still bound, per cent of control [4]: 100%; kinase still bound, per cent of control (DDR2 (human)): 81%; kinase still bound, per cent of control (MAP4K5 (human)): 3%; kinase still bound, per cent of control [5]: 100%; kinase still bound, per cent of control (MKNK2 (human)): 76%; kinase still bound, per cent of control (ITK (human)): 98%
CCN(CC)CCCCNc1ncc2c(n1)N(C)C(=O)N(c1c(Cl)c(OC)cc(OC)c1Cl)C2 | 100% | 100% | 100% | 100% | 100% | 100% | 100% | 5.2% | 100% | 5.6% | 100% | 0.4% | 100% | 100% | 0.25% and 2.9% | 100% | 100% | 100% | 100% | 100% | kinase still bound, per cent of control (LIMK2 (human)): 100%; kinase still bound, per cent of control (SRC (human)): 100%; kinase still bound, per cent of control [6]: 100%; kinase still bound, per cent of control [2]: 100%; kinase still bound, per cent of control (EPHA3 (human)): 100%; kinase still bound, per cent of control (IKBKE (human)): 100%; kinase still bound, per cent of control (CSF1R (human)): 0.15%; kinase still bound, per cent of control (PRKACB (human)): 100%; kinase still bound, per cent of control [3]: 100%; kinase still bound, per cent of control (MARK3 (human)): 100%; kinase still bound, per cent of control (TXK (human)): 100%; kinase still bound, per cent of control (MAPK1 (human)): 100%; kinase still bound, per cent of control [4]: 100%; kinase still bound, per cent of control (DDR2 (human)): 30%; kinase still bound, per cent of control (MAP4K5 (human)): 23%; kinase still bound, per cent of control [5]: 100%; kinase still bound, per cent of control (MKNK2 (human)): 100%; kinase still bound, per cent of control (ITK (human)): 100%
CNC(=O)c1cc(Oc2ccc(NC(=O)Nc3ccc(Cl)c(C(F)(F)F)c3)cc2)ccn1 | 86% | 4.2% | 87% | 43% | 80% | 85% | 100% | 3% | 54% | 6.6% | 74% | 0.8% | 99% | 80% | 23% | 100% | 32% | 0% | 100% | 100% | kinase still bound, per cent of control (LIMK2 (human)): 57%; kinase still bound, per cent of control (TRPM6 (human)): 100%; kinase still bound, per cent of control (IKBKE (human)): 100%; kinase still bound, per cent of control (PRKACB (human)): 100%; kinase still bound, per cent of control [3]: 58%; kinase still bound, per cent of control (MARK3 (human)): 74%; kinase still bound, per cent of control (PIP5K1C (human)): 87%; kinase still bound, per cent of control (TXK (human)): 77%; kinase still bound, per cent of control (MAPK1 (human)): 100%; kinase still bound, per cent of control [4]: 100%; kinase still bound, per cent of control (DDR2 (human)): 14%; kinase still bound, per cent of control (MAP4K5 (human)): 7.2%; kinase still bound, per cent of control (MKNK2 (human)): 0.1%; kinase still bound, per cent of control (ITK (human)): 100%
